From ChEMBL document CHEMBL5154763, “Discovery of 3H-pyrrolo[2,3-c]quinolines with activity against Mycobacterium tuberculosis by allosteric inhibition of the glutamate-5-kinase enzyme” (Eur J Med Chem, 2022) come the findings set out here.

In data set [1] the test system is Mycobacterium tuberculosis. Put plainly: Antitubercular activity against Mycobacterium tuberculosis H37Rv assessed as inhibition of bacterial growth measured after 8 days by Alamar blue assay. Conditions: 192 h, time 8 day. In kind it is functional. (Resazurin is reduced to fluorescent resorufin, in cell work by metabolically active cells.)
In the next data set the target is Acetylcholinesterase (Electrophorus electricus, UniProt O42275). Put plainly: Inhibition of electric eel AChE using acetylthiocholine iodide as substrate by spectrophotometric analysis.
Sequence of Acetylcholinesterase (O42275 whole entry): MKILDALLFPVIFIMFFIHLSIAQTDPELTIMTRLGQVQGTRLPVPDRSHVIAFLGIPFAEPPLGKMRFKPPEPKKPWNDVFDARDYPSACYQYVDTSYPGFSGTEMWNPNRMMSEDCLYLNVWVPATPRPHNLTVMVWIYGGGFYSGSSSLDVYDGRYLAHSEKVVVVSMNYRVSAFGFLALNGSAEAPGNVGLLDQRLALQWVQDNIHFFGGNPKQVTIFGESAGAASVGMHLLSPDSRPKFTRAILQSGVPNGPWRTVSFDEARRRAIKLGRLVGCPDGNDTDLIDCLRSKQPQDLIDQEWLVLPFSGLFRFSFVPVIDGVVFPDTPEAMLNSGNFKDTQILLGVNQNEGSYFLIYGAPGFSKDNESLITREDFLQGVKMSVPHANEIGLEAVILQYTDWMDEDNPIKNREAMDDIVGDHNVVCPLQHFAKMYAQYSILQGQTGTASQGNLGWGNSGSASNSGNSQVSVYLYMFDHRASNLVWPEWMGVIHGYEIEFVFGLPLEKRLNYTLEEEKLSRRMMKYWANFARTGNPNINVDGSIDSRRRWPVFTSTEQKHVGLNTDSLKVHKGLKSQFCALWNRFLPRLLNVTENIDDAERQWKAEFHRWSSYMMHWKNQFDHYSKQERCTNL
The test system of data set [2] is Mycobacterium tuberculosis. As to the kind of experiment: Antitubercular activity against Mycobacterium tuberculosis H37Rv assessed as inhibition of bacterial growth. In kind it is functional.
The target in data set [3] is T1, Glutamate 5-kinase (Escherichia coli) (UniProt P0A7B5).
T1 sequence (whole entry): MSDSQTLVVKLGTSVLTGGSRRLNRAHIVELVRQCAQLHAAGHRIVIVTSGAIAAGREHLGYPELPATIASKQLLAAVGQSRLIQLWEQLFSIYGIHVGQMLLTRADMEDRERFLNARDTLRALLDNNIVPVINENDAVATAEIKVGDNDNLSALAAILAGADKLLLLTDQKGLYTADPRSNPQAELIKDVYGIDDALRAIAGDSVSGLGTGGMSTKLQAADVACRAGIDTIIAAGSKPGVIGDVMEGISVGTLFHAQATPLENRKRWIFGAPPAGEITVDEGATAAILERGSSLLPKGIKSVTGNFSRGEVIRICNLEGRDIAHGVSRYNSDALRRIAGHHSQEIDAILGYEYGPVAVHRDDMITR
Put plainly: Allosteric inhibition of Escherichia coli G5K using 10 mM L-Glu and 10 mM ATP as substate by NADH-coupled assay. Conditions: filed as negative allosteric modulator.

A short description of data set [4]: Cytotoxicity against human HepG2 cells assessed as inhibition of cell growth at 20 uM measured after 48 hrs by MTT assay relative to control. In kind it is toxicity, cell-based.
For data set [5], the target named is T1, Glutamate 5-kinase (Escherichia coli). Put plainly: Allosteric inhibition of Escherichia coli G5K using 150 mM L-Glu and 10 mM ATP as substate by NADH-coupled assay relative to control. Conditions: filed as negative allosteric modulator.
Data set [6] in a line: Cytotoxicity against human HepG2 cells assessed as inhibition of cell growth at 5 uM measured after 48 hrs by MTT assay relative to control. In kind it is toxicity, cell-based. Background: Formazan colour is commonly taken as a measure of viable cells.
The nature of data set [7]: Cytotoxicity against human HepG2 cells assessed as inhibition of cell growth at 10 uM measured after 48 hrs by MTT assay relative to control. The data set is classed as toxicity, cell-based.
For data set [8], the target named is T1, Glutamate 5-kinase (Escherichia coli). Put plainly: Allosteric inhibition of Escherichia coli G5K assessed as decrease in apparent Vmax for ATP using L-Glu and ATP as substate at 120 uM by NADH-coupled assay. Conditions: filed as negative allosteric modulator.
For data set [9] the target is unchanged. As to the kind of experiment: Allosteric inhibition of Escherichia coli G5K assessed as enzyme residual activity using 150 mM L-Glu and 2.2 to 8.4 mM ATP as substate by NADH-coupled assay relative to control.
The target is the same in data set [10]. Put plainly: Allosteric inhibition of Escherichia coli G5K assessed as enzyme residual activity using 150 mM L-Glu and 10 mM ATP as substate by NADH-coupled assay relative to control.
Data set [11] shares this target. As to the kind of experiment: Allosteric inhibition of Escherichia coli G5K assessed as increase in apparent Km for ATP using L-Glu and ATP as substate at 120 uM by NADH-coupled assay. To be noted: filed as negative allosteric modulator.
Data set [12] deals with Plasmodium falciparum. As to the kind of experiment: Antiplasmodial activity against chloroquine-sensitive Plasmodium falciparum 3D7. In kind it is functional, organism-based.
The test system of data set [13] is Plasmodium falciparum. Put plainly: Antiplasmodial activity against chloroquine-resistant Plasmodium falciparum Dd2. The data set is classed as functional, organism-based.

Each structure is given as a SMILES string. In brackets after ≈: the same amount, converted by molar mass. Activity calls are given as the source filed them.

For the compound `Fc1ccc2c(c1)nc(-c1ccc(Cl)cc1)c1c2ccn1CC1CC1`, in data set [1], the minimal inhibitory concentration (MIC) (as a rule, the smallest concentration in the dilution series that meets the test's criterion for growth inhibition) was found to be 14.2 µM (≈ 4.98 µg/mL).

`Oc1ccc(Cc2nc3ccccc3c3cc[nH]c23)cc1` [MARINOQUINOLINE D]: the IC50 – broadly, the midpoint of a concentration-inhibition curve – against Acetylcholinesterase worked out at 3.6 µM. In the case of `c1ccc2c(c1)nc(-c1ccc(N3CCCC3)cc1)c1c3ncccc3[nH]c21`, the minimum inhibitory concentration (MIC) in data set [2] came out at 13.7 µM (≈ 4.99 µg/mL). Compound `Fc1ccc2c(c1)nc(-c1ccc(Cl)cc1)c1[nH]ccc12` came in with an I0.5 in data set [3] of 33 µM. For the same compound, the MIC in [1] worked out at 4.2 µM (≈ 1.25 µg/mL). Besides, in data set [4], the inhibition (usually the change of the read-out against control, counted positive when it falls) at 48 h, 20 µM is 2%. The compound further yielded an inhibition in data set [5] of 40%. The inhibition at 48 h, 5 µM in data set [6] was 1%. Also, the inhibition at 48 h, 10 µM in data set [7] amounted to 1%. The inhibition entry in data set [8] is “Active”. On to `c1ccc2c(c1)nc(C1CC1)c1[nH]ccc12`, for which, in [1], the MIC came to 24 µM (≈ 5 µg/mL). As to `CCCCCCCCc1nc2ccccc2c2cc[nH]c12`, the MIC in data set [1] was determined as 17.8 µM (≈ 4.99 µg/mL). Still for that read-out and setting: the result for `Clc1ccc(-c2nc3ccccc3c3c(Cl)c[nH]c23)cc1` reads 16 µM (≈ 5.01 µg/mL); that for `COC(=O)c1ccc2c(c1)nc(-c1ccc(Cl)cc1)c1[nH]ccc12`, > 500 µM. Turning to `Clc1ccc(-c2nc3ccccc3c3cc[nH]c23)cc1`, in data set [1], the MIC amounted to 17.9 µM (≈ 4.99 µg/mL). Regarding `Clc1ccc(-c2nc3ccccc3c3c(Br)c[nH]c23)cc1`, in data set [1], the minimal inhibitory concentration (MIC) amounted to 14 µM (≈ 5.01 µg/mL). Same read-out and setting: the result for `Fc1ccc2c(c1)nc(CCc1ccccc1)c1[nH]ccc12` reads 34.4 µM (≈ 9.99 µg/mL). Consider `COc1ccc2c(c1)nc(CCc1ccccc1)c1[nH]ccc12`, for which the Activity in [9] was determined as 66%; in data set [10], 68%. The compound further returned an I0.5 in data set [3] of 22.1 µM. For the same compound, the MIC in [1] is 4.1 µM (≈ 1.24 µg/mL). In addition, in data set [4], the inhibition at 48 h, 20 µM was found to be 17%. For the same compound, the inhibition at 48 h, 5 µM in [6] turned out to be 1%. The inhibition at 48 h, 10 µM in [7] is 3%. Moreover, the inhibition result in [11] is “Active”. On Acetylcholinesterase, `c1ccc2c(c1)nc(-c1c[nH]c3ccccc13)c1[nH]ccc12` [MARINOQUINOLINE E] returned an IC50 of 3.6 µM. Regarding `O=C(O)[C@@H]1CCCN1`, in [3], the I0.5 was found to be 2.5 µM. Moreover, the inhibition in data set [5] stood at 100%.

Consider `c1ccc(-c2ccc(-c3nc4ccccc4c4cc[nH]c34)cc2)cc1`, for which, in data set [1], the minimum inhibitory concentration (MIC) was found to be 31.2 µM (≈ 10 µg/mL).

On to `O=C(c1c[nH]c2ccccc12)c1nc2ccccc2c2cc[nH]c12` [MARINOQUINOLINE F], for which the 50% inhibitory concentration (IC50) on Acetylcholinesterase stood at 3.6 µM. For `Clc1ccc(-c2nc3cc(Cl)ccc3c3cc[nH]c23)cc1`, the MIC in data set [1] turned out to be 16 µM (≈ 5.01 µg/mL). Take `c1ccc(CCc2nc3ccccc3c3cc[nH]c23)cc1`: in data set [1], the minimal inhibitory concentration (MIC) turned out to be 36.7 µM (≈ 10 µg/mL). As for `COc1c(N2C[C@@H]3CCCN[C@@H]3C2)c(F)cc2c(=O)c(C(=O)O)cn(C3CC3)c12` [MOXIFLOXACIN], the minimum inhibitory concentration (MIC) in data set [1] amounted to 0.15 µM (≈ 0.0602 µg/mL). `c1ccc(Cc2nc3ccccc3c3cc[nH]c23)cc1` [MARINOQUINOLINE C] returned an IC50 at Acetylcholinesterase of 3.6 µM. Turning to `CCCCCCCCc1nc2cc(OC)ccc2c2cc[nH]c12`, in data set [1], the minimum inhibitory concentration (MIC) worked out at 16.1 µM (≈ 5 µg/mL). As to `Cc1ccc2c(c1)nc(-c1ccc(Cl)cc1)c1c2ccn1C`, the minimum inhibitory concentration (MIC) in data set [1] worked out at 16.3 µM (≈ 5 µg/mL). In the case of `CC(C)(C)OC(=O)Nc1ccc(-c2nc3ccccc3c3[nH]c4ccccc4c23)cc1`, the MIC in [2] was found to be 6.1 µM (≈ 2.5 µg/mL).

`Cc1nc2ccccc2c2cc[nH]c12` [MARINOQUINOLINE A] came in with a half-inhibitory concentration (IC50) at Acetylcholinesterase of 3.6 µM. As for `COc1ccc2c(c1)nc(CCc1ccccc1)c1c2ccn1C`, in [1], the MIC stood at 7.9 µM (≈ 2.5 µg/mL). As to `Nc1ncnc2c1ncn2Cc1nc2ccccc2c2cc[nH]c12`, the half-maximal inhibitory concentration (IC50) worked out at 1.47 µM in the data set on Plasmodium falciparum [12] and 1.65 µM in the data set on Plasmodium falciparum [13]. Regarding `Fc1cccc(-c2c[nH]c3c(-c4ccc(Cl)cc4)nc4ccccc4c23)c1`, in data set [1], the MIC worked out at 26.8 µM (≈ 9.99 µg/mL).

Regarding `FC(F)(F)c1ccc2c(c1)nc(-c1ccc(Cl)cc1)c1[nH]ccc12`, in [1], the MIC came to 14.4 µM (≈ 4.99 µg/mL).

For the compound `Cc1ccc2c(c1)nc(-c1ccc(Cl)cc1)c1[nH]ccc12`, the MIC in [1] is 8.5 µM (≈ 2.49 µg/mL). For the compound `COc1ccc2c(c1)nc(Cc1ccccc1)c1[nH]ccc12`, the MIC in data set [1] was 34.7 µM (≈ 10 µg/mL).

In the case of `CCCCCCCCc1nc2cc(C)ccc2c2cc[nH]c12`, the minimal inhibitory concentration (MIC) in [1] was found to be 17 µM (≈ 5.01 µg/mL).

With `Cn1ccc2c3ccccc3nc(-c3ccc(Cl)cc3)c21`, the minimal inhibitory concentration (MIC) in data set [1] is 17.1 µM (≈ 5.01 µg/mL). Take `Cc1ccc2c(c1)nc(C1CC1)c1[nH]ccc12`: the minimal inhibitory concentration (MIC) in [1] worked out at 45 µM (≈ 10 µg/mL). As for `CCCCCCCCc1nc2cc(F)ccc2c2cc[nH]c12`, the MIC in [1] amounted to 16.8 µM (≈ 5.01 µg/mL). For the compound `CC(C)Cc1nc2ccccc2c2cc[nH]c12`, in data set [1], the MIC worked out at 22.6 µM (≈ 5.07 µg/mL). Moreover, half-maximal inhibition against Acetylcholinesterase (IC50) was put at 3.6 µM.
